# Test results from ChEMBL document CHEMBL5316342, “Structure-Based Design of Potent Iminosugar Inhibitors of Endoplasmic Reticulum α-Glucosidase I with Anti-SARS-CoV-2 Activity” (J Med Chem, 2023).
# Calls of active or inactive are those of the source. The rule behind the calls is not given here.
# System: not listed separately
# Experiment: Inhibition of C-terminal his6-tagged full length recombinant mouse Endoplasmic reticulum alpha-glucosidase 1 (59 to 834 residues) expressed in FreeStyle 293-F cells using trisaccharide as substrate preincubated for 60 mins followed by substrate addition and measured for 90 mins by Amplex Red assay
# Settings: not given
row,SMILES,IC50 [nM]
1,C[C@@H]1CN(c2ccc(NCc3ccc(CN4C[C@H](O)[C@@H](O)[C@H](O)[C@H]4CO)cc3)c([N+](=O)[O-])c2)C[C@H](C)O1,1
2,Cc1cc(NCc2cccc(CN3C[C@H](O)[C@@H](O)[C@H](O)[C@H]3CO)c2)cc(-c2ncccn2)c1,44
3,OC[C@@H]1[C@@H](O)[C@H](O)[C@@H](O)CN1CCCCCCCCc1ccco1,139
4,O=[N+]([O-])c1cc(-c2noc(C3CCC3)n2)ccc1NCCCCCCN1C[C@H](O)[C@@H](O)[C@H](O)[C@H]1CO,11
5,OC[C@@H]1[C@@H](O)[C@H](O)[C@@H](O)CN1CCCCCCNc1cc(-c2cccnn2)cc(C2CC2)c1,103
6,Cc1cc(-c2ccco2)ccc1NCc1ccc(CN2C[C@H](O)[C@@H](O)[C@H](O)[C@H]2CO)cc1,< 1
7,[N-]=[N+]=Nc1ccc(NCCCCCCN2C[C@H](O)[C@@H](O)[C@H](O)[C@H]2CO)c([N+](=O)[O-])c1,155
8,Cc1cc(NCc2cccc(CN3C[C@H](O)[C@@H](O)[C@H](O)[C@H]3CO)n2)cc(-c2ccc[nH]2)c1,966
9,CS(=O)(=O)c1cc(NCc2cccc(CN3C[C@H](O)[C@@H](O)[C@H](O)[C@H]3CO)c2)cc(-c2ccccc2)c1,17
10,COCCCCCCCCCN1C[C@H](O)[C@@H](O)[C@H](O)[C@H]1CO,537
11,OC[C@@H]1[C@@H](O)[C@H](O)[C@@H](O)CN1CCc1ccc(CCNc2cc(O)cc(-c3ncon3)c2)cc1,1010
12,[N-]=[N+]=Nc1ccc(NCCc2cncc(CCN3C[C@H](O)[C@@H](O)[C@H](O)[C@H]3CO)n2)c([N+](=O)[O-])c1,94
13,Cc1cc(NCc2ccc(CN3C[C@H](O)[C@@H](O)[C@H](O)[C@H]3CO)cc2)cc(-c2cccnn2)c1,73
14,CCCCN[C@H]1C[C@](O)(CO)[C@@H](O)[C@H](O)[C@H]1O,29500
15,O=[N+]([O-])c1cc(-c2ccccc2)ccc1NCCCCCCN1C[C@H](O)[C@@H](O)[C@H](O)[C@H]1CO,57
16,O=[N+]([O-])c1cc(-n2nccn2)ccc1NCCCCCCN[C@H]1C[C@](O)(CO)[C@@H](O)[C@H](O)[C@H]1O,47

# Target: not listed separately
# Experiment: Inhibition of mouse recombinant alpha-glucosidase using 4-methylumbelliferyl-[…]-D-glucopyranoside as substrate preincubated for 60 mins followed by substrate addition and measured after 30 mins by fluorescence based analysis
# Settings: not given
row,SMILES,IC50 [nM]
1,C[C@@H]1CN(c2ccc(NCc3ccc(CN4C[C@H](O)[C@@H](O)[C@H](O)[C@H]4CO)cc3)c([N+](=O)[O-])c2)C[C@H](C)O1,4
2,Cc1cc(NCc2cccc(CN3C[C@H](O)[C@@H](O)[C@H](O)[C@H]3CO)c2)cc(-c2ncccn2)c1,66500
3,OC[C@@H]1[C@@H](O)[C@H](O)[C@@H](O)CN1CCCCCCCCc1ccco1,35
4,O=[N+]([O-])c1cc(-c2noc(C3CCC3)n2)ccc1NCCCCCCN1C[C@H](O)[C@@H](O)[C@H](O)[C@H]1CO,< 1
5,OC[C@@H]1[C@@H](O)[C@H](O)[C@@H](O)CN1CCCCCCNc1cc(-c2cccnn2)cc(C2CC2)c1,12
6,Cc1cc(-c2ccco2)ccc1NCc1ccc(CN2C[C@H](O)[C@@H](O)[C@H](O)[C@H]2CO)cc1,318
7,[N-]=[N+]=Nc1ccc(NCCCCCCN2C[C@H](O)[C@@H](O)[C@H](O)[C@H]2CO)c([N+](=O)[O-])c1,10
8,Cc1cc(NCc2cccc(CN3C[C@H](O)[C@@H](O)[C@H](O)[C@H]3CO)n2)cc(-c2ccc[nH]2)c1,> 100000
9,CS(=O)(=O)c1cc(NCc2cccc(CN3C[C@H](O)[C@@H](O)[C@H](O)[C@H]3CO)c2)cc(-c2ccccc2)c1,4600
10,COCCCCCCCCCN1C[C@H](O)[C@@H](O)[C@H](O)[C@H]1CO,68
11,OC[C@@H]1[C@@H](O)[C@H](O)[C@@H](O)CN1CCc1ccc(CCNc2cc(O)cc(-c3ncon3)c2)cc1,295
12,[N-]=[N+]=Nc1ccc(NCCc2cncc(CCN3C[C@H](O)[C@@H](O)[C@H](O)[C@H]3CO)n2)c([N+](=O)[O-])c1,3
13,Cc1cc(NCc2ccc(CN3C[C@H](O)[C@@H](O)[C@H](O)[C@H]3CO)cc2)cc(-c2cccnn2)c1,179
14,O=[N+]([O-])c1cc(-c2ccccc2)ccc1NCCCCCCN1C[C@H](O)[C@@H](O)[C@H](O)[C@H]1CO,< 1
15,O=[N+]([O-])c1cc(-n2nccn2)ccc1NCCCCCCN[C@H]1C[C@](O)(CO)[C@@H](O)[C@H](O)[C@H]1O,< 1

# System: not listed separately
# Experiment: Cytotoxicity against human A549-ACE2 cells infected with SARS-CoV-2 USA-WA1/2020 assessed as reduction in cell viability at 25 uM measured for 3 days by WST-1 assay relative to control
# Format: toxicity, cell-based
# Settings: a549-ace2, 72 h, time 3 day
row,SMILES,Activity [%]
1,C[C@@H]1CN(c2ccc(NCc3ccc(CN4C[C@H](O)[C@@H](O)[C@H](O)[C@H]4CO)cc3)c([N+](=O)[O-])c2)C[C@H](C)O1,51.5
2,Cc1cc(NCc2cccc(CN3C[C@H](O)[C@@H](O)[C@H](O)[C@H]3CO)c2)cc(-c2ncccn2)c1,52.9
3,OC[C@@H]1[C@@H](O)[C@H](O)[C@@H](O)CN1CCCCCCCCc1ccco1,95.7
4,O=[N+]([O-])c1cc(-c2noc(C3CCC3)n2)ccc1NCCCCCCN1C[C@H](O)[C@@H](O)[C@H](O)[C@H]1CO,100
5,OC[C@@H]1[C@@H](O)[C@H](O)[C@@H](O)CN1CCCCCCNc1cc(-c2cccnn2)cc(C2CC2)c1,100
6,Cc1cc(-c2ccco2)ccc1NCc1ccc(CN2C[C@H](O)[C@@H](O)[C@H](O)[C@H]2CO)cc1,82.6
7,[N-]=[N+]=Nc1ccc(NCCCCCCN2C[C@H](O)[C@@H](O)[C@H](O)[C@H]2CO)c([N+](=O)[O-])c1,100
8,Cc1cc(NCc2cccc(CN3C[C@H](O)[C@@H](O)[C@H](O)[C@H]3CO)n2)cc(-c2ccc[nH]2)c1,54.1
9,CS(=O)(=O)c1cc(NCc2cccc(CN3C[C@H](O)[C@@H](O)[C@H](O)[C@H]3CO)c2)cc(-c2ccccc2)c1,40.8
10,OC[C@@H]1[C@@H](O)[C@H](O)[C@@H](O)CN1CCc1ccc(CCNc2cc(O)cc(-c3ncon3)c2)cc1,83.8
11,[N-]=[N+]=Nc1ccc(NCCc2cncc(CCN3C[C@H](O)[C@@H](O)[C@H](O)[C@H]3CO)n2)c([N+](=O)[O-])c1,38.8
12,Cc1cc(NCc2ccc(CN3C[C@H](O)[C@@H](O)[C@H](O)[C@H]3CO)cc2)cc(-c2cccnn2)c1,73.7
13,O=[N+]([O-])c1cc(-c2ccccc2)ccc1NCCCCCCN1C[C@H](O)[C@@H](O)[C@H](O)[C@H]1CO,100

# System: not listed separately
# Experiment: Cytotoxicity against human A549-ACE2 cells infected with SARS-CoV-2 USA-WA1/2020 assessed as reduction in cell viability measured for 3 days by WST-1 assay
# Format: toxicity, cell-based
# Settings: a549-ace2, 72 h, time 3 day
row,SMILES,CC50 [nM]
1,OC[C@@H]1[C@@H](O)[C@H](O)[C@@H](O)CN1CCCCCCCCc1ccco1,35000
2,O=[N+]([O-])c1cc(-c2noc(C3CCC3)n2)ccc1NCCCCCCN1C[C@H](O)[C@@H](O)[C@H](O)[C@H]1CO,40700
3,OC[C@@H]1[C@@H](O)[C@H](O)[C@@H](O)CN1CCCCCCNc1cc(-c2cccnn2)cc(C2CC2)c1,> 100000
4,Cc1cc(-c2ccco2)ccc1NCc1ccc(CN2C[C@H](O)[C@@H](O)[C@H](O)[C@H]2CO)cc1,29500
5,[N-]=[N+]=Nc1ccc(NCCCCCCN2C[C@H](O)[C@@H](O)[C@H](O)[C@H]2CO)c([N+](=O)[O-])c1,> 100000
6,OC[C@@H]1[C@@H](O)[C@H](O)[C@@H](O)CN1CCc1ccc(CCNc2cc(O)cc(-c3ncon3)c2)cc1,> 100000
7,O=[N+]([O-])c1cc(-c2ccccc2)ccc1NCCCCCCN1C[C@H](O)[C@@H](O)[C@H](O)[C@H]1CO,> 100000

# System: SARS-CoV-2
# Experiment: Antiviral activity against SARS-CoV-2 USA-WA1/2020 infected in human A549-ACE2 cells assessed as reduction in viral burden measured upto 4 days by viral plaque assay
# Format: functional, organism-based
# Settings: Severe acute respiratory syndrome coronavirus 2, USA-WA1/2020, A549-ACE2, 96 h
row,SMILES,EC50 [nM]
1,OC[C@@H]1[C@@H](O)[C@H](O)[C@@H](O)CN1CCCCCCCCc1ccco1,3360
2,O=[N+]([O-])c1cc(-c2noc(C3CCC3)n2)ccc1NCCCCCCN1C[C@H](O)[C@@H](O)[C@H](O)[C@H]1CO,720
3,OC[C@@H]1[C@@H](O)[C@H](O)[C@@H](O)CN1CCCCCCNc1cc(-c2cccnn2)cc(C2CC2)c1,7860
4,Cc1cc(-c2ccco2)ccc1NCc1ccc(CN2C[C@H](O)[C@@H](O)[C@H](O)[C@H]2CO)cc1,> 25000
5,[N-]=[N+]=Nc1ccc(NCCCCCCN2C[C@H](O)[C@@H](O)[C@H](O)[C@H]2CO)c([N+](=O)[O-])c1,580
6,O=[N+]([O-])c1cc(-c2ccccc2)ccc1NCCCCCCN1C[C@H](O)[C@@H](O)[C@H](O)[C@H]1CO,420

# System: SARS-CoV-2
# Experiment: Antiviral activity against SARS-CoV-2 USA-WA1/2020 infected in human A549-ACE2 cells assessed as maximum reduction in viral burden up to 100 uM measured upto 4 days by viral plaque assay
# Format: functional
# Settings: Severe acute respiratory syndrome coronavirus 2, time <= 4.0 day
row,SMILES,Activity
1,C[C@@H]1CN(c2ccc(NCc3ccc(CN4C[C@H](O)[C@@H](O)[C@H](O)[C@H]4CO)cc3)c([N+](=O)[O-])c2)C[C@H](C)O1,inactive
2,Cc1cc(NCc2cccc(CN3C[C@H](O)[C@@H](O)[C@H](O)[C@H]3CO)c2)cc(-c2ncccn2)c1,inactive
3,Cc1cc(NCc2cccc(CN3C[C@H](O)[C@@H](O)[C@H](O)[C@H]3CO)n2)cc(-c2ccc[nH]2)c1,inactive
4,CS(=O)(=O)c1cc(NCc2cccc(CN3C[C@H](O)[C@@H](O)[C@H](O)[C@H]3CO)c2)cc(-c2ccccc2)c1,inactive
5,[N-]=[N+]=Nc1ccc(NCCc2cncc(CCN3C[C@H](O)[C@@H](O)[C@H](O)[C@H]3CO)n2)c([N+](=O)[O-])c1,inactive
6,Cc1cc(NCc2ccc(CN3C[C@H](O)[C@@H](O)[C@H](O)[C@H]3CO)cc2)cc(-c2cccnn2)c1,inactive
